Experiments:
Experiment in all cases: biochemical
ZmDRIK1-K217-P492 = target: T1, ZmDRIK1-K217-P492 (Zea mays, UniProt C0P4K9); conditions: read-out: dTm B, sheet ZmDRIK1-K217-P492;; DSF, Boltzmann fit, 0.1% DMSO
T1 construct: kinase domain, K217-P492
T1 sequence (C0P4K9 1-514): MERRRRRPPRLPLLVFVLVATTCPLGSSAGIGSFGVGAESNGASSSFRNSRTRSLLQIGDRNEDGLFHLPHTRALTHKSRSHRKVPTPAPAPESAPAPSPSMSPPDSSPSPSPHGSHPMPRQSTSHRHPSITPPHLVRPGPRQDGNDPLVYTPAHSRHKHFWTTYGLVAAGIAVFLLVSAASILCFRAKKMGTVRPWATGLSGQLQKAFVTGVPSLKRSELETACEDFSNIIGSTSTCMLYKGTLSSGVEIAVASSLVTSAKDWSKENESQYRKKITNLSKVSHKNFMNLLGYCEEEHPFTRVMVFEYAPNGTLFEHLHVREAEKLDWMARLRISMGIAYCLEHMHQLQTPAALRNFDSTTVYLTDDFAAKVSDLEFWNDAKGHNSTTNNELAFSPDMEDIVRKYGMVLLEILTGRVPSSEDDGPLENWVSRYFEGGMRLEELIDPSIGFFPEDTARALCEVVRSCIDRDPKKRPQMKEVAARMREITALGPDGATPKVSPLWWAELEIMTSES

ZmDRIK1-R187-P492 = target: T2, ZmDRIK1-R187-P492 (Zea mays, UniProt C0P4K9); conditions: read-out: dTm B, DSF, Boltzmann fit, 0.1% DMSO
T2 construct: kinase domain, R187-P492
T2 sequence (C0P4K9 1-514): T1 sequence (C0P4K9 1-514)

[1] = target: T3, ZmDRIK1 (DROUGHT RESPONSIVE INACTIVE KINASE 1), kinase domain (Zea mays, UniProt C0P4K9); conditions: read-out: dTm B, sheet ZmDRIK1-R187-S514;; DSF, Boltzmann fit, 0.1% DMSO
T3 construct: gene ZEAMMB73_Zm00001d028770; ZmDRIK1-KD R187-S514 (kinase domain)
T3 sequence (C0P4K9 187-514): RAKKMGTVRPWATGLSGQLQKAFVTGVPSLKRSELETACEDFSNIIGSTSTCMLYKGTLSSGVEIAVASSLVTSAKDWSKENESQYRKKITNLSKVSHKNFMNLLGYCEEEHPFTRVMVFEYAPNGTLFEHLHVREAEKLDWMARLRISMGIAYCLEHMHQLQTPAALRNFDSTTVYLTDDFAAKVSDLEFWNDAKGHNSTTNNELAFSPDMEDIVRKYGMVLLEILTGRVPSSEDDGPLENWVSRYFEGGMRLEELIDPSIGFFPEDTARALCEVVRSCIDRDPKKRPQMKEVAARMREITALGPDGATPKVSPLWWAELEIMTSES

ZmDRIK1-K217-S514 = target: T4, ZmDRIK1-K217-S514 (Zea mays, UniProt C0P4K9); conditions: read-out: dTm B, sheet ZmDRIK1-K217-S514;; DSF, Boltzmann fit, 0.1% DMSO
T4 construct: kinase domain, K217-S514
T4 sequence (C0P4K9 1-514): T1 sequence (C0P4K9 1-514)

| SMILES | ΔTm at 10 µM (ZmDRIK1-K217-P492) | ΔTm at 10 µM (ZmDRIK1-R187-P492) | ΔTm at 10 µM [1] | ΔTm at 10 µM (ZmDRIK1-K217-S514) |
| --- | --- | --- | --- | --- |
| N#CC(C#N)=Cc1ccc(O)c(O)c1 [AG-18] | -0.987 °C | -0.457 °C | -1.16 °C | -0.556 °C |
| N#C/C(=C\c1ccc(O)c(O)c1)C(=O)NCc1ccccc1 [AG-490 (Tyrphostin B42)] | -0.722 °C | -0.394 °C | -1.15 °C | -0.507 °C |
| CC(C)(C)c1cc(C=C(C#N)C#N)cc(Br)c1O [AG-1024] | -1.09 °C | -0.615 °C | -0.562 °C | -0.233 °C |
| COc1cc2ncnc(Nc3cccc(Cl)c3)c2cc1OC [AG-1478 (Tyrphostin AG-1478)] | -0.243 °C | -0.424 °C | -0.676 °C | -0.388 °C |
| COc1ccc2c(Oc3ccc(NC(=O)c4c(C)n(CC(C)(C)O)n(-c5ccccc5)c4=O)nc3)ccnc2c1 [AMG-458] | -0.94 °C | -0.312 °C | -0.675 °C | -0.329 °C |
| Cc1csc(-c2nnc(Nc3ccc(Oc4ncccc4-c4ccnc(N)n4)cc3)c3ccccc23)c1 [AMG-900] | -3.86 °C | -0.572 °C | -6.12 °C | -2.33 °C |
| COc1ccc(CNC(=O)Nc2ncc([N+](=O)[O-])s2)cc1 [AR-A014418] | -0.984 °C | -0.199 °C | -1.03 °C | -0.49 °C |
| O=C1NC(=O)/C(=C/c2ccc(-c3ccc(F)cc3O)o2)S1 [AS-252424] | 1.37 °C | 0.884 °C | 0.389 °C | 1.39 °C |
| O=C1NC(=O)/C(=C/c2ccc3c(c2)OC(F)(F)O3)S1 [AS-604850] | -0.999 °C | -0.284 °C | -0.905 °C | -0.526 °C |
| C=CC(=O)Nc1ccc2ncnc(Nc3ccc(OCc4cccc(F)c4)c(Cl)c3)c2c1 [AST-1306] | -1.48 °C | -5.11 °C | -7.98 °C | -1.18 °C |
| O=C(NC1CCNCC1)c1n[nH]cc1NC(=O)c1c(Cl)cccc1Cl [AT7519] | 0.0166 °C | 0.0148 °C | -0.866 °C | -0.106 °C |
| Clc1ccc(C2(c3ccc(-c4cn[nH]c4)cc3)CCNCC2)cc1 [AT7867] | -0.759 °C | -0.25 °C | -0.971 °C | 0.339 °C |
| O=C(Nc1c[nH]nc1-c1nc2ccc(CN3CCOCC3)cc2[nH]1)NC1CC1 [AT9283] | -0.742 °C | -0.23 °C | -0.914 °C | -0.536 °C |
| C[C@@H]1COCCN1c1cc(C2(S(C)(=O)=O)CC2)nc(-c2cccc3[nH]ccc23)n1 [AZ20] | -0.913 °C | -0.0341 °C | -0.953 °C | -0.493 °C |
| Cc1cc(Nc2nc(N[C@@H](C)c3ccc(F)cc3)c(C#N)cc2F)n[nH]1 [AZ 960] | -0.533 °C | -0.311 °C | -0.939 °C | -0.27 °C |
| CNC(=O)CN1CCC(Oc2cc3c(Nc4cccc(Cl)c4F)ncnc3cc2OC)CC1 [AZD8931 (Sapitinib)] | -1.14 °C | -0.238 °C | -1.22 °C | -0.326 °C |
| NC(=O)c1ncn([C@@H]2O[C@H](CO)[C@@H](O)[C@H]2O)c1N [Acadesine] | -0.691 °C | -0.0339 °C | -0.564 °C | -0.387 °C |
| CN(C)C/C=C/C(=O)Nc1cc2c(Nc3ccc(F)c(Cl)c3)ncnc2cc1O[C@H]1CCOC1 [Afatinib (BIBW2992)] | -1.3 °C | -0.346 °C | -0.728 °C | -0.623 °C |
| COc1cc(Nc2ncc3c(n2)-c2ccc(Cl)cc2C(c2c(F)cccc2OC)=NC3)ccc1C(=O)O [Alisertib (MLN8237)] | -1.1 °C | -0.494 °C | -1.37 °C | -0.528 °C |
| N#CC1(c2ccc(NC(=O)c3cccnc3NCc3ccncc3)cc2)CCCC1 [Apatinib] | -0.944 °C | -0.28 °C | -0.808 °C | -0.311 °C |
| C[C@H]1[C@H](C)CC[C@]2(C(=O)O)CC[C@]3(C)C(=CC[C@@H]4[C@@]5(C)C[C@@H](O)[C@H](O)[C@@](C)(CO)[C@@H]5CC[C@]43C)[C@H]12 [Asiatic Acid] | -1.33 °C | -0.41 °C | -0.753 °C | -0.368 °C |
| CCN1CCN(C(=O)Cc2ccc(Nc3ncc(F)c(Nc4ccc(C(=O)Nc5ccccc5Cl)cc4)n3)cc2)CC1 [Aurora A Inhibitor I] | -1.33 °C | -0.457 °C | -0.616 °C | -0.286 °C |
| CNC(=O)c1ccccc1Sc1ccc2c(/C=C/c3ccccn3)n[nH]c2c1 [Axitinib] | -1.24 °C | -0.367 °C | -0.702 °C | -0.335 °C |
| Cc1ccc(S(=O)(=O)/C=C/C#N)cc1 [BAY 11-7082] | -2.48 °C | -1.15 °C | -1.51 °C | -0.963 °C |
| CC(C)CCN1c2nc(Nc3cc(F)c(O)c(F)c3)ncc2N(C)C(=O)C1C (stereo not drawn) [BI-D1870] | -1.48 °C | -0.479 °C | -0.701 °C | -0.612 °C |

More lines, now with the values ahead:

| ΔTm at 10 µM (ZmDRIK1-K217-P492) | ΔTm at 10 µM (ZmDRIK1-R187-P492) | ΔTm at 10 µM [1] | ΔTm at 10 µM (ZmDRIK1-K217-S514) | SMILES |
| --- | --- | --- | --- | --- |
| 0.368 °C | 1.32 °C | -0.365 °C | 0.698 °C | C=CC(=O)Nc1cccc(Nc2nc(Nc3ccc(OCCOC)cc3)ncc2F)c1 [AVL-292] |
| -0.787 °C | -0.506 °C | -1.22 °C | -0.298 °C | N#Cc1ccc2[nH]c(O)c(-c3ccc(CN4CCOCC4)cn3)c2c1 [AZD1080] |
| -0.752 °C | -0.181 °C | -0.564 °C | -0.249 °C | N[C@@H]1CCCN(c2c(/C=C3\SC(=O)NC3=O)cccc2-c2ccccc2)C1 [AZD1208] |
| -0.856 °C | -0.161 °C | -0.906 °C | -0.215 °C | Cc1cc(Nc2nc(N[C@@H](C)c3ncc(F)cn3)ncc2Cl)[nH]n1 [AZD1480] |
| -0.984 °C | -0.208 °C | -0.732 °C | -0.171 °C | CNC(=O)c1cccc(-c2ccc3c(N4CCOC[C@@H]4C)nc(N4CCOC[C@@H]4C)nc3n2)c1 [AZD2014] |
| -0.184 °C | 0.74 °C | -0.307 °C | 0.133 °C | COc1cc(N2CCC(N)CC2)ccc1Nc1ncc(Cl)c(-c2c[nH]c3ccccc23)n1 [AZD3463] |
| 0.194 °C | 0.421 °C | 0.239 °C | 0.296 °C | COc1cc(CCc2cc(NC(=O)c3ccc(N4C[C@@H](C)N[C@@H](C)C4)cc3)n[nH]2)cc(OC)c1 [AZD4547] |
| -1.06 °C | -0.504 °C | -0.693 °C | -0.652 °C | NC1(C(=O)N[C@@H](CCO)c2ccc(Cl)cc2)CCN(c2ncnc3[nH]ccc23)CC1 [AZD5363] |
| -1.24 °C | -0.417 °C | -0.576 °C | -0.394 °C | Cc1ncc(-c2ccnc(Nc3ccc(S(C)(=O)=O)cc3)n2)n1C(C)C [AZD5438] |
| -1.04 °C | -0.2 °C | -0.715 °C | -0.29 °C | Cc1cc([C@@H](C)Nc2ccccc2C(=O)O)c2nc(N3CCOCC3)cc(=O)n2c1 [AZD6482] |
| -0.323 °C | -0.167 °C | -0.804 °C | -0.261 °C | NC(=O)Nc1cc(-c2cccc(F)c2)sc1C(=O)N[C@H]1CCCNC1 [AZD7762] |
| -0.668 °C | -0.00437 °C | -0.773 °C | -0.119 °C | COc1ccc(-c2ccc3c(N4CCOC[C@@H]4C)nc(N4CCOC[C@@H]4C)nc3n2)cc1CO [AZD8055] |
| -0.83 °C | -0.162 °C | -0.935 °C | -0.42 °C | Cc1cc(C(=O)NOCCO)c(Nc2ccc(I)cc2F)n(C)c1=O [AZD8330] |
| -1.19 °C | -0.293 °C | -0.497 °C | -0.27 °C | C=CC(=O)Nc1cc(Nc2nccc(-c3cn(C)c4ccccc34)n2)c(OC)cc1N(C)CCN(C)C [AZD9291] |
